# Source: ChEMBL document CHEMBL5518197, “Recent advances in the development of deubiquitinases inhibitors as antitumor agents” (Eur J Med Chem, 2024)
# Legend:
# Caspase-3 = biological target: T1, Caspase-3 (Homo sapiens, UniProt P42574); assay: Inhibition of caspase-3 (unknown origin) by microplate reader analysis
# T1 sequence (P42574 whole entry): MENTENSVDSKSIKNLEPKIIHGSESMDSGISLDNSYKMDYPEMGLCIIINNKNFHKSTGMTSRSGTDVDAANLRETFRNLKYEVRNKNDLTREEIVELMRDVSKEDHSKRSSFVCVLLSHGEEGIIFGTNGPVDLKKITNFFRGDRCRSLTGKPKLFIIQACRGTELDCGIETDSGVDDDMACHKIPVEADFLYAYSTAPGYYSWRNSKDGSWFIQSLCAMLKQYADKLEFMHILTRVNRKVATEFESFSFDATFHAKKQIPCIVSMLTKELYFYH
# [1] = biological target: T2, Ubiquitin carboxyl-terminal hydrolase 28 (Homo sapiens, UniProt Q96RU2); assay: Inhibition of USP28 (unknown origin)
# T2 sequence (Q96RU2 whole entry): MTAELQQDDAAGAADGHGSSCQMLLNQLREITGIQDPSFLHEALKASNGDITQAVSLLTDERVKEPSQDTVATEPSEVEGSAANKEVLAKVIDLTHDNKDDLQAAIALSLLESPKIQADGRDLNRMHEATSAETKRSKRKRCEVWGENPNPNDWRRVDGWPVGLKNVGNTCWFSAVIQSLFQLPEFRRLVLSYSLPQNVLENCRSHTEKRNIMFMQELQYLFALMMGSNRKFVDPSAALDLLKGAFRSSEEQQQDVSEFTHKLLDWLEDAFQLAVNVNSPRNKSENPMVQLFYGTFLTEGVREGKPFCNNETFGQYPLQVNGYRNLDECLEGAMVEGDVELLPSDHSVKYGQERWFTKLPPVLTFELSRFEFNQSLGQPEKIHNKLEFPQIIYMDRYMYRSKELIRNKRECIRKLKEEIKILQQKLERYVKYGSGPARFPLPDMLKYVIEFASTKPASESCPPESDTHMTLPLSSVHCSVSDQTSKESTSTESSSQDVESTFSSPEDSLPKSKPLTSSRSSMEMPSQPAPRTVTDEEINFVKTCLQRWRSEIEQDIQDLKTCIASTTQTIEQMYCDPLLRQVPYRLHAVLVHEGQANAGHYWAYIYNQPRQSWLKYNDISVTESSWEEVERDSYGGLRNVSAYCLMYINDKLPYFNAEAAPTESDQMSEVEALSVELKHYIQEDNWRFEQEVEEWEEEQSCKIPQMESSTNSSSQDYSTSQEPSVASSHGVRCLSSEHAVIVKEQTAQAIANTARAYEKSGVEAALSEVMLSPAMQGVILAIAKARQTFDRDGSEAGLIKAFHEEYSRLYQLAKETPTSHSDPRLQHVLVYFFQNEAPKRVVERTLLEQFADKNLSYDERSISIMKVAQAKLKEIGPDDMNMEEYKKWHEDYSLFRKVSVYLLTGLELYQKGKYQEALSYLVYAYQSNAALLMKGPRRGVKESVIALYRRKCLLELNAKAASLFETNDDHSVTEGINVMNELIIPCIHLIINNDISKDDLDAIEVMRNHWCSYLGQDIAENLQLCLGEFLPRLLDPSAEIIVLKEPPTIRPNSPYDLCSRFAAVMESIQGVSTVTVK
# HCT-116 = assay: Antiproliferative activity against human HCT-116 cells assessed as reduction in cell viability incubated for 48 hrs by MTT assay; type: functional, cell-based; conditions: HCT-116, 48 h
# [2] = biological target: T3, Ubiquitin carboxyl-terminal hydrolase 19 (Homo sapiens, UniProt O94966); assay: Inhibition of C-terminal 6-His tagged USP19 (unknown origin) (1 to 1290 residues) using Ub-Rh110MP as substrate by fluorescence based assay
# T3 sequence (O94966 whole entry): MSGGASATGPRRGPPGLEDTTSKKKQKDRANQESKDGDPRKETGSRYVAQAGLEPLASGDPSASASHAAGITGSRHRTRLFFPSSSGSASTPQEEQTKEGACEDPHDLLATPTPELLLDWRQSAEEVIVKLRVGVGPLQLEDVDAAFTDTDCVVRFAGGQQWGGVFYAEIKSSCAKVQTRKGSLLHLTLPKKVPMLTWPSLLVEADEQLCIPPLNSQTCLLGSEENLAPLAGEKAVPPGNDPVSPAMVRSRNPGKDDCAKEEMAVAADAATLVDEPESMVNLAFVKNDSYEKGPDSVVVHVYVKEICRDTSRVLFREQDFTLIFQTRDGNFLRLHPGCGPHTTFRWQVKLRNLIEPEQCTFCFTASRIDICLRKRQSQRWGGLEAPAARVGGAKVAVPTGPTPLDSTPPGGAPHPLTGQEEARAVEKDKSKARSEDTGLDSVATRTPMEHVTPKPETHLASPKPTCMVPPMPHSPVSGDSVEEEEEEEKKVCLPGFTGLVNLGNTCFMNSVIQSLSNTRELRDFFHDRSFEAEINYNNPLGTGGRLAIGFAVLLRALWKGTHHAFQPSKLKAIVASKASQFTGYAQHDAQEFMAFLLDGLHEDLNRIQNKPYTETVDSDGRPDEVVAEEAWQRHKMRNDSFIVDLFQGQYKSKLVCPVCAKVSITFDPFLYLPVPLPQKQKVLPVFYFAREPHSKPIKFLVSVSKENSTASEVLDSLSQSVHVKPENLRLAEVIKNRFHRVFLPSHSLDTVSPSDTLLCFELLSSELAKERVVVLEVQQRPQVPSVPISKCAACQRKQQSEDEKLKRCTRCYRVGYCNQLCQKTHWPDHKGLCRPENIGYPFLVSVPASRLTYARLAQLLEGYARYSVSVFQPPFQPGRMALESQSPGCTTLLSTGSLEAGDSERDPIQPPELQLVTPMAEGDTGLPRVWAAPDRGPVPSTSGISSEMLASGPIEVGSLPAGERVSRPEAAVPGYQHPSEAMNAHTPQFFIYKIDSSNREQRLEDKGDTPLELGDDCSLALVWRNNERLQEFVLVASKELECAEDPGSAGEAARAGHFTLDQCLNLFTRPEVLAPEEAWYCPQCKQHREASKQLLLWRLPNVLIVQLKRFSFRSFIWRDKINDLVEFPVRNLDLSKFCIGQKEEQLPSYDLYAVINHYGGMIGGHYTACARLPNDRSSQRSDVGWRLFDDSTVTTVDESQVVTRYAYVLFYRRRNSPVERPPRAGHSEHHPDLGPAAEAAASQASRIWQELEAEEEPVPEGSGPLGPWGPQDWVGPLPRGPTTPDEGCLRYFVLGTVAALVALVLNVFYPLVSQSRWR
# [3] = biological target: Ubiquitin carboxyl-terminal hydrolase 7 (Homo sapiens, UniProt Q93009); assay: Inhibition of full length His-tagged human recombinant USP7
# Chain of Ubiquitin carboxyl-terminal hydrolase 7 (Q93009 whole entry): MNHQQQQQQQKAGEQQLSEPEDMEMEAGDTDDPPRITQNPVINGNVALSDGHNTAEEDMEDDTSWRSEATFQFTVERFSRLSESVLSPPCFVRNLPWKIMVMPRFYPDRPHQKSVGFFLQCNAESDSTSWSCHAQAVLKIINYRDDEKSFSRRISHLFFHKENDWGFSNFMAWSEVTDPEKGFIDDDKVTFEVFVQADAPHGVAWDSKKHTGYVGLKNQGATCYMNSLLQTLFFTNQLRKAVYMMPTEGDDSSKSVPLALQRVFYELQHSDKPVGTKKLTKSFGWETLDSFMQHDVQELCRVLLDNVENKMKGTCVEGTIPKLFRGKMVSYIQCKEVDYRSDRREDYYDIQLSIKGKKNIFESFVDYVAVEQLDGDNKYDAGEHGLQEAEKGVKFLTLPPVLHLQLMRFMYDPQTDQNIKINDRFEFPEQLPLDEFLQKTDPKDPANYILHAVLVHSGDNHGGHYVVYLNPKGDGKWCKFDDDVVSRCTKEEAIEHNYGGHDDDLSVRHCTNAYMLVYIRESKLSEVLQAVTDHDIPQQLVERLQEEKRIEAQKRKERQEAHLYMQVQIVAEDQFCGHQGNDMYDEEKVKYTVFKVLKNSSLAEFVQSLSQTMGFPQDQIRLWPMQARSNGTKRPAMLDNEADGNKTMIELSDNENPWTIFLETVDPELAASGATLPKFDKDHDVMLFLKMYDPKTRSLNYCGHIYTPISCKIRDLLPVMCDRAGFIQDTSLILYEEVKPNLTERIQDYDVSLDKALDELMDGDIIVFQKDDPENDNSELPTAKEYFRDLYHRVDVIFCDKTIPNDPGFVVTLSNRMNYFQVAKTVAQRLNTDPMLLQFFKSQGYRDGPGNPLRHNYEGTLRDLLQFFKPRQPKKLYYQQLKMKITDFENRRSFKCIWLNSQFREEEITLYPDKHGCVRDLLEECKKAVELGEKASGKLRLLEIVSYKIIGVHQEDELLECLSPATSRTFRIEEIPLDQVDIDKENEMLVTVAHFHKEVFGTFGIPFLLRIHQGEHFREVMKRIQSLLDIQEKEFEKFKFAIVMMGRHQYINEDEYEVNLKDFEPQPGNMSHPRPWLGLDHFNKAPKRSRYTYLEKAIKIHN
# [4] = biological target: T4, Ubiquitin carboxyl-terminal hydrolase isozyme L1 (Homo sapiens, UniProt P09936); assay: Inhibition of human UCH-L1
# T4 sequence (P09936 whole entry): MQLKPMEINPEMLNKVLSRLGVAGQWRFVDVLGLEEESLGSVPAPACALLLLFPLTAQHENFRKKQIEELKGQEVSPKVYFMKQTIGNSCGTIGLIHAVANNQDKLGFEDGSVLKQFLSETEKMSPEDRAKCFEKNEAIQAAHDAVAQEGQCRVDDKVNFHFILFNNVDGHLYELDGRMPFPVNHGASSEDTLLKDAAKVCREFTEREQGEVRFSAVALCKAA
# [5] = biological target: T4, Ubiquitin carboxyl-terminal hydrolase isozyme L1; assay: Inhibition of His-tagged UCH-L1 (unknown origin) expressed in Escherichia coli BL21 (DE3) by fluorescence based analysis
# [6] = biological target: T4, Ubiquitin carboxyl-terminal hydrolase isozyme L1; assay: Inhibition of recombinant wild type UCH-L1 (unknown origin) by fluorescence based analysis
smiles,measurement,setting,value
C=CC(=O)N1C/C(=C\c2ccc([N+](=O)[O-])cc2)C(=O)/C(=C/c2ccc([N+](=O)[O-])cc2)C1,IC50,Caspase-3,1050 nM
OCCNCc1cc(Br)ccc1OCc1ccccc1,IC50,[1],29600 nM
Cc1ccc(S(=O)(=O)Nc2cc(C(F)(F)F)ccc2C(=O)Nc2nc(-c3ccccc3)cs2)cc1,IC50,HCT-116,1100 nM
O=C1c2ccccc2C(=O)c2oc(-c3ccc(F)cc3)nc21,IC50,[2],880 nM
O=C1c2ccccc2C(=O)c2oc(-c3ccccc3)nc21,IC50,[2],544 nM
C=CC(=O)N1CC/C(=C\c2ccc(F)c([N+](=O)[O-])c2)C(=O)/C(=C/c2ccc(F)c([N+](=O)[O-])c2)C1,IC50,Caspase-3,580 nM
O=C(CCc1ccccc1)N1CCC(O)(Cn2cnc3cc(Cl)ccc3c2=O)CC1,IC50,[3],193 nM
CCc1ccc(S(=O)(=O)Nc2ccc(-c3ccc(NS(=O)(=O)c4ccc(CC)cc4)cc3)cc2)cc1,IC50,[4],15000 nM
COC(=O)CC[C@H](NC(=O)[C@H](C)NC[C@@H](NC(=O)OCc1ccccc1)C(C)C)C(=O)CF,IC50,[5],7700 nM
N#CN1CCC[C@H]1C(=O)N1CCc2c(-c3cn[nH]c3C(F)(F)F)cccc21,IC50,[6],670 nM
